{"source": "paper PMC9000592", "about": "(Molecules, 2022)", "key": {"CYP3A2 [1]": {"target": "T1, CYP3A2 (Rattus norvegicus, UniProt P05183)", "T1 sequence (P05183 1-504)": "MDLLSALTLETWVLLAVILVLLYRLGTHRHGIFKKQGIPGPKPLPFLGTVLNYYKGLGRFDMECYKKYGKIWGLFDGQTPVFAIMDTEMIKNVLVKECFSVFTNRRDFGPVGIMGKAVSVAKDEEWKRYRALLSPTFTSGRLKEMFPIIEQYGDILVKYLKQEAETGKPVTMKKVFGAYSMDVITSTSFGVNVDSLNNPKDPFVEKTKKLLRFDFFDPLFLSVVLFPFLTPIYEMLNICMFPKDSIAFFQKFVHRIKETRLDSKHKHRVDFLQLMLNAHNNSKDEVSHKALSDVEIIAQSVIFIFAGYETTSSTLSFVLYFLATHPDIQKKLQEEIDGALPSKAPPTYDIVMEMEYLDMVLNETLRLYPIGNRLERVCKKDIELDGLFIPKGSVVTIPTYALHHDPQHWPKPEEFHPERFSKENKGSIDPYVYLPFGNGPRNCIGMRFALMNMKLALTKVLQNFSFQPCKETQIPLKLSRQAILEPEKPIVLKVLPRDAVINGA", "experiment": "Inhibition of CYP3A2-mediated dexamethasone 6β-hydroxylation in rat liver microsomes (HPLC)", "conditions": "for inhibition mode of CYP3A2 enzyme activity: Lineweaver–Burk plot, rat liver microsomes; for Vmax for 6β-hydroxylase / Clint (hepatic intrinsic clearance) for 6β-hydroxylase: dexamethasone substrate", "experimental": "The rates of 6β-hydroxydexamethasone formation were determined using High-Performance Liquid Chromatography (HPLC) technique.\nThe percentage of organic solvent in the assay was not more than 1% v/v.\nThe quenched reaction masses were transferred to the new vials and substrate and metabolite were double extracted with ethyl acetate (3 mL) and diethyl ether (3 mL), respectively. The organic extracts were evaporated to dryness. The mobile phase (70% acetonitrile and 30% water, v/v) was used to dissolve the residues. Then, 10 µL of the solution was injected for HPLC analysis.\nAnalysis of variance (ANOVA) test was also performed (at 0.05 significance level).\nSchwarz criterion (SC) and Akaike information criterion (AIC) were acquired from nonlinear regression analysis. IC50 values were calculated by nonlinear regression analysis and GraphPad Prism software was used for this purpose.\nThe Lineweaver–Burk plot was used to assess the inhibition parameters such as Km, Vmax, and Clint."}, "[2]": {"target": "fatty acid amide hydrolase", "conditions": "hydrolysis of arachidonoylethanolamide; cited from earlier work"}, "cytokine expression": {"test_system": "cytokine expression", "set-up": "method as in PMID 31286365", "conditions": "in vitro; cited from earlier work"}, "[3]": {"conditions": "cited from earlier work"}, "trimethadione metabolism": {"test_system": "trimethadione metabolism", "conditions": "short-term administration in rats; cited from earlier work"}, "ATPase": {"test_system": "ATPase", "set-up": "method as in PMID 2992525", "conditions": "in vitro, up to 60 min at pH 6.1 or pH 7.4; cited from earlier work"}, "[4]": {"set-up": "method as in PMID 29752643", "conditions": "several daily oral doses of omeprazole 40 mg; cited from earlier work"}, "[5]": {"test_system": "bufuralol 1′-hydroxylation", "set-up": "method as in PMID 15258107", "conditions": "cited from earlier work"}, "CYP3A4": {"test_system": "CYP3A4", "conditions": "cited from earlier work"}, "CYP3A2 [6]": {"target": "T1, CYP3A2", "set-up": "The pooled liver microsomes from male rats (Sprague Dawley) were purchased from Merck; tissue Merck; host or cells: pooled liver microsomes from male Sprague Dawley rats", "conditions": "previous study; cited from earlier work"}, "COVID-19": {"test_system": "COVID-19", "set-up": "method as in PMID 33732750", "conditions": "cited from earlier work"}, "[7]": {"conditions": "male, Sprague Dawley, rat, microsomes, pH 7.4"}}, "note": "Where two headings read alike, the source gives them in different places."}
{"smiles": "CC(C)Cc1ccc(C(C)C(=O)O)cc1", "note": "(stereo not drawn) [Ibuprofen, ibuprofen]", "values": [{"measurement": "inhibition mode of CYP3A2 enzyme activity", "setting": "CYP3A2 [1]", "result": "non-competitive"}, {"measurement": "Vmax for 6β-hydroxylase", "setting": "CYP3A2 [1]; inhibitor 50 µM", "result": "0.0116 ± 0.608 × 10^−3 µM^−1∙min^−1"}, {"measurement": "Vmax for 6β-hydroxylase", "setting": "CYP3A2 [1]; inhibitor 100 µM", "result": "0.0099 ± 0.040 × 10^−3 µM^−1∙min^−1"}, {"measurement": "Vmax for 6β-hydroxylase", "setting": "CYP3A2 [1]; inhibitor 200 µM", "result": "0.0092 ± 0.100 × 10^−3 µM^−1∙min^−1"}, {"measurement": "inhibition at 40 min, 50 µM", "setting": "CYP3A2 [1]; [7]", "result": "23 ± 4.34", "unit": "%"}, {"measurement": "inhibition at 40 min, 100 µM", "setting": "CYP3A2 [1]; [7]", "result": "34.73 ± 0.336", "unit": "%"}, {"measurement": "inhibition at 40 min, 200 µM", "setting": "CYP3A2 [1]; [7]", "result": "38.9 ± 0.476", "unit": "%"}, {"measurement": "IC50", "setting": "[2]", "result": 270, "unit": "µM"}, {"measurement": "effect on cytokine expression", "setting": "cytokine expression", "result": "no inhibitory effect"}, {"measurement": "amounts found in plasma", "setting": "[3]", "result": "49 to 242", "unit": "µM"}, {"measurement": "Cmax", "setting": "[3]; read-out: peak plasma concentrations (Cmax), after two single doses of 200 mg from two different ibuprofen preparations", "result": "110 to 150", "unit": "µM"}, {"measurement": "effect on trimethadione metabolism", "setting": "trimethadione metabolism", "result": "did not affect"}]}
{"smiles": "COc1ccc2[nH]c([S+]([O-])Cc3ncc(C)c(OC)c3C)nc2c1", "note": "(stereo not drawn) [Omeprazole, omeprazole]", "values": [{"measurement": "IC50", "setting": "CYP3A2 [1]", "result": "78.35 ± 0.46", "unit": "µM"}, {"measurement": "Ki", "setting": "CYP3A2 [1]", "result": "39.18 ± 0.23", "unit": "µM"}, {"measurement": "inhibition mode of CYP3A2 enzyme activity", "setting": "CYP3A2 [1]", "result": "uncompetitive"}, {"measurement": "inhibition of CYP3A2 at concentrations lower than 30 µM", "setting": "CYP3A2 [1]", "result": "No inhibition"}, {"measurement": "Clint (hepatic intrinsic clearance) for 6β-hydroxylase", "setting": "CYP3A2 [1]; inhibitor 30 µM", "result": "0.0009 ± 0.091 × 10^−3 µM^−2∙min^−1"}, {"measurement": "Vmax for 6β-hydroxylase", "setting": "CYP3A2 [1]; inhibitor 30 µM", "result": "0.0080 ± 0.346 × 10^−3 µM^−1∙min^−1"}, {"measurement": "Clint (hepatic intrinsic clearance) for 6β-hydroxylase", "setting": "CYP3A2 [1]; inhibitor 50 µM", "result": "0.0010 ± 0.093 × 10^−3 µM^−2∙min^−1"}, {"measurement": "Vmax for 6β-hydroxylase", "setting": "CYP3A2 [1]; inhibitor 50 µM", "result": "0.0062 ± 0.473 × 10^−3 µM^−1∙min^−1"}, {"measurement": "Clint (hepatic intrinsic clearance) for 6β-hydroxylase", "setting": "CYP3A2 [1]; inhibitor 100 µM", "result": "0.0011 ± 0.066 × 10^−3 µM^−2∙min^−1"}, {"measurement": "Vmax for 6β-hydroxylase", "setting": "CYP3A2 [1]; inhibitor 100 µM", "result": "0.0042 ± 0.058 × 10^−3 µM^−1∙min^−1"}, {"measurement": "inhibition of the ATPase activity", "setting": "ATPase", "result": "no substantial inhibition"}, {"measurement": "effect on the pharmacokinetics of roxadustat", "setting": "[4]", "result": "no substantial effect"}, {"measurement": "IC50", "setting": "[5]", "result": "> 200", "unit": "µM"}, {"measurement": "therapeutic plasma concentration", "setting": "[3]; no reference given", "result": "1.1 to 2.0", "unit": "µM"}, {"measurement": "Cmax", "setting": "[3]; several daily oral doses of 40 mg", "result": 1207, "unit": "ng/mL"}]}
{"smiles": "CCC(CC)COC(=O)[C@H](C)N[P@](=O)(OC[C@H]1O[C@@](C#N)(c2ccc3c(N)ncnn23)[C@H](O)[C@@H]1O)Oc1ccccc1", "note": "[Remdesivir, remdesivir]", "values": [{"measurement": "IC50", "setting": "CYP3A2 [1]", "result": "45.007 ± 0.016", "unit": "µM"}, {"measurement": "Ki", "setting": "CYP3A2 [1]", "result": "22.504 ± 0.008", "unit": "µM"}, {"measurement": "inhibition mode of CYP3A2 enzyme activity", "setting": "CYP3A2 [1]", "result": "mixed"}, {"measurement": "inhibition of CYP3A2 at concentrations lower than 30 µM", "setting": "CYP3A2 [1]", "result": "No inhibition"}, {"measurement": "Clint (hepatic intrinsic clearance) for 6β-hydroxylase", "setting": "CYP3A2 [1]; inhibitor 30 µM", "result": "0.0006 ± 0.011 × 10^−3 µM^−2∙min^−1"}, {"measurement": "Vmax for 6β-hydroxylase", "setting": "CYP3A2 [1]; inhibitor 30 µM", "result": "0.0122 ± 0.306 × 10^−3 µM^−1∙min^−1"}, {"measurement": "Clint (hepatic intrinsic clearance) for 6β-hydroxylase", "setting": "CYP3A2 [1]; inhibitor 50 µM", "result": "0.0006 ± 0.018 × 10^−3 µM^−2∙min^−1"}, {"measurement": "Vmax for 6β-hydroxylase", "setting": "CYP3A2 [1]; inhibitor 50 µM", "result": "0.0146 ± 0.586 × 10^−3 µM^−1∙min^−1"}, {"measurement": "Clint (hepatic intrinsic clearance) for 6β-hydroxylase", "setting": "CYP3A2 [1]; inhibitor 100 µM", "result": "0.0010 ± 0.025 × 10^−3 µM^−2∙min^−1"}, {"measurement": "Vmax for 6β-hydroxylase", "setting": "CYP3A2 [1]; inhibitor 100 µM", "result": "0.0132 ± 0.153 × 10^−3 µM^−1∙min^−1"}, {"measurement": "plasma concentration range", "setting": "[3]; after a single dose of 3–225 mg", "result": "0.1 to 7.3", "unit": "µM"}, {"measurement": "inhibition of CYP3A4", "setting": "CYP3A4", "result": "weak inhibitor"}]}
{"smiles": "CC(=O)Oc1ccccc1C(=O)O", "note": "[aspirin]", "values": [{"measurement": "inhibition of CYP3A2 isoenzyme activity", "setting": "CYP3A2 [6]", "result": "weak competitive inhibition"}]}
{"smiles": "C[C@@H]1C[C@H]2[C@@H]3CCC4=CC(=O)C=C[C@]4(C)[C@@]3(F)[C@@H](O)C[C@]2(C)[C@@]1(O)C(=O)CO", "note": "[dexamethasone]", "values": [{"measurement": "reduction of death rate", "setting": "COVID-19; nonventilated patients with supplemental oxygen", "result": 20, "unit": "%"}, {"measurement": "reduction of death rate", "setting": "COVID-19; ventilated intensive care unit (ICU) patients", "result": 35, "unit": "%"}]}
